{"source": "patent US20200345021A1", "about": "“METHOD AND SYSTEM FOR ENHANCING THE EFFICACY USING IONIZED/A[…] PEROXIDE IN REDUCING MICROBIAL POPULATIONS, METHOD OF USE THEREOF” (priority 2019, published 2020)", "key": {"L. innocua": {"tested_on": "L. innocua", "conditions": "45 s treatment + 30 min dwell"}, "Listeria innocua": {"tested_on": "Listeria innocua", "experiment": "Effect of cold plasma activation on efficacy of ionized/aerosolized H2O2 against Listeria innocua (Study 2)", "assay_type": "cell-based", "conditions": "for Reductions of Listeria on all types and surfaces of fresh produce except the tomato stem scar area: optimized conditions", "excerpt": "To minimize the risk of possible bacteria becoming airborne during treatments, attenuated and non-pathogenic bacteria were used in the study. Two strains of non-pathogenic S. Typhimurium (ATCC 53647 and 53648) and three strains of L. innocua (ATCC 33090, ATCC 51742 and ATCC BAA680) were obtained from American Type Culture Collection (ATCC) (Manassas, Va., USA). Further studies used E. coli O157:H7 (ATCC 700728), S. Typhimurium (ATCC 53647 and 53648), and L. innocua (ATCC 33090) obtained from American Type Culture Collection (ATCC) (Manassas, Va., USA) and maintained as a part of the culture collection at the USDA Eastern Regional Research Center (Wyndmoor, Pa. USA). The bacteria were made to be resistant to nalidixic acid by successive growth in Trypic Soy Broth (TSB) (Difco, Sparks, Md., USA) with increasing nalidixic acid concentrations. All strains were stored at −80° C. in 1 mL of TSB containing 10% glycerol. Working cultures of S. Typhimurium and L. innocua were maintained in 9 mL TSB (supplemented with 100 μg/mL nalidixic acid for S. Typhimurium) at 4° C. after incubating at 37° C. for […], respectively, and sub-cultured each time.\nEach strain of S. Typhimurium and L. innocua was cultured in 9 mL TSB (supplemented with 100 μg/mL nalidixic acid for S. Typhimurium) and incubated at 37° C. for 40 h and 48 h, respectively, harvested by centrifugation at 4000×g for 10 min at 4° C., and resuspended in 9 mL sterile Buffered Peptone Water (BPW; Difco). The pellets were resuspended in BPW to form cell suspensions with a final concentration of 108˜10^9 CFU/mL. Subsequently, suspended pellets of two strains of Salmonella and three strains of L. innocua were combined to obtain two separate culture cocktails.\nGrape tomatoes, granny smith apples, romaine lettuce and cantaloupes were purchased from local markets (Philadelphia, Pa., USA) and kept at 10° C. prior to use. Fruits and vegetables were removed from 10° C. refrigeration and equilibrated to ambient temperature before being inoculated. Romaine lettuce was divided into upper green leaf and midrib tissues. Six tomatoes, six pieces (2×2 cm) of apple skins, five pieces (3×3 cm) of Romaine lettuce upper leaves, five pieces (3 cm length) of Romaine lettuce midrib area and six pieces (2×2 cm) of cantaloupe rinds with 2×3 mm thickness of flesh were used for each treatment per replicate. Bach piece w as spot inoculated with 10 μL of Salmonella and L. innocua by depositing droplets with a micropipette. The inoculated samples were dried in a bio-hood for 1 h (for tomato surfaces, romaine lettuce, apple skins and cantaloupe rinds) or 2 h (for tomato stem scars) at ambient temperature.\nProduce items were placed onto a sterile test tube rack with the inoculated area facing up and the rack with produce pieces were placed inside of a treatment chamber (12×12×24 inch).\nTherefore, each kind of produce was treated with and without cold plasma ionized under the same optimized conditions.\nAfter each treatment, the tomato stem scars and surfaces with the inoculated bacteria were removed using a pair of sterile scissors. Each type of produce item from the same treatment was combined (total weight: 1.51±0.29 g for tomato stem scars; 2.07±0.15 g for tomato surfaces; 6.37±0.92 g for apple skins; 1.62±0.34 g for Romaine lettuce upper leaves: 13.30±2.97 g for Romaine lettuce midrib tissues: 9.58±1.26 g for cantaloupe rinds) and transferred into an 80 mL filtered stomacher bag. After addition of 30 mL BBL buffered peptone water into the bag, the sample in the bag was homogenized using a mini blender (Mini Mix CC, Interscience laboratories Inc., Woburn, Mass., USA) for 2 min at a setting of 4. […] Tryptic Soy Agar with 200 μg/mL pyruvate acid and 100 μg/mL nalidixic acid (TSA-PN) and PALCAM Agars (Difco) were used for the enumeration of S. Typhimurium and L. innocua, respectively."}, "[1]": {"conditions": "Tomato-stem scar, three cycles of 20 s spray time plus 20 min dwell time, listed as H2O2 + cold plasma"}}, "note": "“And” between values parts separate entries of the source, which are not always exact repeats. Identical values can stand only once. Like-named read-outs stand apart in the source and are kept apart here. Marks after values point to notes of the source that are not given here."}
{"compound": "OO", "note": "[H2O2, hydrogen peroxide]", "values": [{"measurement": "Populations of L. innocua", "setting": "L. innocua; cantaloupe", "result": "3.5 +/− 0.2b log CFU/piece"}, {"measurement": "Reduction of L. innocua", "setting": "L. innocua; cantaloupe", "result": 3.0, "unit": "log CFU/piece"}, {"measurement": "Populations of L. innocua", "setting": "L. innocua; spinach", "result": "2.5 +/− 1.9b log CFU/piece"}, {"measurement": "Reduction of L. innocua", "setting": "L. innocua; surface of spinach leaves", "result": 4.0, "unit": "log CFU/leaf"}, {"measurement": "Reduction of L. innocua", "setting": "L. innocua; tomato stem scar area, listed as ionized/aerosolized hydrogen peroxide (H2O2)", "result": "1.0-1.3 log CFU/piece and 1.3 log CFU/piece"}, {"measurement": "Populations of L. innocua", "setting": "L. innocua; tomato stem scar", "result": "4.9 +/− 0.4b log CFU/piece"}, {"measurement": "Listeria reductions for cantaloupes and two locations on lettuces", "setting": "Listeria innocua", "result": "2.61 to 3.40", "unit": "log CFU/piece"}, {"measurement": "Populations of Listeria innocua", "setting": "Listeria innocua; Cantaloupe rind, 30 s spray time + 30 min dwell, ND1: not detectable (detection limit 0.70 log CFU/piece), listed as H2O2 + cold plasma", "result": "ND1^c"}, {"measurement": "Reductions of Listeria innocua", "setting": "Listeria innocua; Cantaloupe rind, 30 s spray time + 30 min dwell, listed as H2O2 + cold plasma", "result": "5.10 ± 0.30^x log CFU/piece"}, {"measurement": "Populations of Listeria innocua", "setting": "Listeria innocua; Granny Smith apple, 8 s spray time + 30 min dwell, ND1: not detectable (detection limit 0.70 log CFU/piece), listed as H2O2 + cold plasma", "result": "ND1^c"}, {"measurement": "Reductions of Listeria innocua", "setting": "Listeria innocua; Granny Smith apple, 8 s spray time + 30 min dwell, listed as H2O2 + cold plasma", "result": "5.24 ± 0.22^x log CFU/piece"}, {"measurement": "Populations of Listeria innocua", "setting": "Listeria innocua; Romaine lettuce-midrib, 30 s spray time + 30 min dwell, ND2: not detectable (detection limit 0.76 log CFU/piece), listed as H2O2 + cold plasma", "result": "ND2^c"}, {"measurement": "Reductions of Listeria innocua", "setting": "Listeria innocua; Romaine lettuce-midrib, 30 s spray time + 30 min dwell, listed as H2O2 + cold plasma", "result": "5.21 ± 0.11^x log CFU/piece"}, {"measurement": "Populations of Listeria innocua", "setting": "Listeria innocua; Romaine lettuce-upper leaf, 30 s spray time + 30 min dwell, ND2: not detectable (detection limit 0.76 log CFU/piece), listed as H2O2 + cold plasma", "result": "ND2^c"}, {"measurement": "Reductions of Listeria innocua", "setting": "Listeria innocua; Romaine lettuce-upper leaf, 30 s spray time + 30 min dwell, listed as H2O2 + cold plasma", "result": "5.19 ± 0.08^x log CFU/piece"}, {"measurement": "Populations of Listeria innocua", "setting": "Listeria innocua; [1]", "result": "2.94 ± 0.89^c log CFU/piece"}, {"measurement": "Reductions of Listeria innocua", "setting": "Listeria innocua; [1]", "result": "2.62 ± 0.89^x log CFU/piece"}, {"measurement": "Reductions of Listeria innocua", "setting": "Listeria innocua; Tomato-stem scar, three cycles of 20 s spray time plus 20 min dwell time, listed as iHP", "result": 2.36, "unit": "log CFU/piece"}, {"measurement": "Populations of Listeria innocua", "setting": "Listeria innocua; Tomato-surface, 8 s spray time + 30 min dwell, ND1: not detectable (detection limit 0.70 log CFU/piece), listed as H2O2 + cold plasma", "result": "ND1^c"}, {"measurement": "Reductions of Listeria innocua", "setting": "Listeria innocua; Tomato-surface, 8 s spray time + 30 min dwell, listed as H2O2 + cold plasma", "result": "5.16 ± 0.20^x log CFU/piece"}, {"measurement": "Reductions of Listeria on all types and surfaces of fresh produce except the tomato stem scar area", "setting": "Listeria innocua; listed as cold plasma-activated hydrogen peroxide (H2O2)", "result": "> 5", "unit": "log CFU/piece"}, {"measurement": "Reductions of Listeria on all types and surfaces of fresh produce except the tomato stem scar area", "setting": "Listeria innocua; listed as hydrogen peroxide (H2O2) with cold plasma", "result": "more than 5 log CFU/piece"}, {"measurement": "Reductions of Listeria on all types and surfaces of fresh produce except the tomato stem scar area", "setting": "Listeria innocua; listed as iHP", "result": "more than 5 log CFU/piece"}]}
